Measurements from ChEMBL document CHEMBL5380773, “Novel Feleucin-K3-Derived Peptides Modified with Sulfono-γ-AA Building Blocks Targeting Pseudomonas aeruginosa and Methicillin-Resistant Staphylococcus aureus Infections” (J Med Chem, 2023).
Numbered stars: 1 amine (or outer) side, 2 acyl side, 3 side chain; on linkers, the order of the positions; unused ones are H or OH. Square brackets hold non-standard residues; d marks the D form. Peptide text beside a SMILES is read from it. * marks the point of attachment. X14 = CC(C)C[C@@H](CN(CC(N)=O)S(=O)(=O)c1c(C(C)C)cc(C(C)C)cc1C(C)C)N*; X12 = NC(=O)CN(C[C@H](Cc1ccccc1)N*)S(=O)(=O)c1ccc([N+](=O)[O-])cc1; X9 = NC(=O)CN(C[C@H](Cc1ccccc1)N*)S(=O)(=O)c1ccccc1[N+](=O)[O-]; X13 = NC(=O)CN(C[C@H](Cc1ccccc1)N*)S(=O)(=O)c1ccc(Br)cc1; X23 = NC(=O)CN(C[C@H](Cc1ccccc1)N*)S(=O)(=O)c1ccc(F)cc1; X25 = CC(C)C[C@@H](CN(CC(N)=O)S(=O)(=O)c1cccc(Cl)c1)N*; X27 = Cc1ccc(S(=O)(=O)N(CC(N)=O)C[C@H](CC(C)C)N*)cc1; X8 = CC(C)C[C@@H](CN(CC(N)=O)S(=O)(=O)c1ccc(I)cc1)N*; Benzenesulfonyl(4-OMe) = COc1ccc(S(=O)(=O)*)cc1; Benzenesulfonyl(4-F) = O=S(=O)(c1ccc(F)cc1)*; X5 = CC(C)c1cc(C(C)C)c(S(=O)(=O)*)c(C(C)C)c1; X3 = N[C@@H](Cc1ccccc1)CN(CC(=O)[*:2])[*:1]; X2 = CC(C)C[C@H](N)CN(CC(=O)[*:2])[*:1]; Brosyl = O=S(=O)(c1ccc(Br)cc1)*; X20 = O=S(=O)(c1ccc(Cl)cc1)*; X1 = O=S(=O)(c1ccc(I)cc1)*

What follows are compounds tested on Erythrocyte (assay: Hemolytic activity against mouse red blood cells incubated for 1 hr).
Assay type: toxicity, cell-based
With `CC(C)C[C@H](NC(=O)[C@H](CC(C)C)NC(=O)[C@H](CCCCN)NC(=O)[C@H](CC(C)C)NC(=O)[C@@H](N)Cc1ccccc1)C(=O)N[C@@H](CCCCN)C(=O)N[C@@H](CCCCN)C(=O)N[C@@H](Cc1ccccc1)CN(CC(N)=O)S(=O)(=O)c1ccc(F)cc1` (H-FLKLLKK-X23) the MHC was 256 µg/mL.
For `CC(C)C[C@H](NC(=O)[C@H](CC(C)C)NC(=O)[C@H](CCCCN)NC(=O)[C@H](CC(C)C)NC(=O)[C@@H](N)Cc1ccccc1)C(=O)N[C@@H](CCCCN)C(=O)N[C@@H](CCCCN)C(=O)N[C@@H](Cc1ccccc1)CN(CC(N)=O)S(=O)(=O)c1ccc(Br)cc1` (H-FLKLLKK-X13), the MHC was 256 µg/mL.
In the case of `CC(C)C[C@H](N)CN(CC(=O)N[C@@H](CCCCN)C(=O)N[C@@H](CC(C)C)C(=O)N[C@@H](CC(C)C)C(=O)N[C@@H](CCCCN)C(=O)N[C@@H](CCCCN)C(=O)N[C@@H](CC(C)C)C(=O)N[C@@H](CC(C)C)C(N)=O)S(=O)(=O)c1c(C(C)C)cc(C(C)C)cc1C(C)C` (X5-[X2]KLLKKLL-NH2), the MHC is reported as 32 µg/mL.
With `CC(C)C[C@@H](CN(CC(N)=O)S(=O)(=O)c1c(C(C)C)cc(C(C)C)cc1C(C)C)NC(=O)[C@H](CCCCN)NC(=O)[C@H](CCCCN)NC(=O)[C@H](CC(C)C)NC(=O)[C@H](CC(C)C)NC(=O)[C@H](CCCCN)NC(=O)[C@H](CC(C)C)NC(=O)[C@@H](N)Cc1ccccc1` (H-FLKLLKK-X14) the MHC was 32 µg/mL.
Work on `COc1ccc(S(=O)(=O)N(CC(=O)N[C@@H](CCCCN)C(=O)N[C@@H](CC(C)C)C(=O)N[C@@H](CC(C)C)C(=O)N[C@@H](CCCCN)C(=O)N[C@@H](CCCCN)C(=O)N[C@@H](CC(C)C)C(=O)N[C@@H](CC(C)C)C(N)=O)C[C@@H](N)Cc2ccccc2)cc1` ({Benzenesulfonyl(4-OMe)}-[X3]KLLKKLL-NH2) yielded an MHC of 256 µg/mL.
`CC(C)C[C@H](NC(=O)[C@H](CC(C)C)NC(=O)[C@H](CCCCN)NC(=O)[C@H](CCCCN)NC(=O)[C@H](CC(C)C)NC(=O)[C@H](CC(C)C)NC(=O)[C@H](CCCCN)NC(=O)CN(C[C@@H](N)Cc1ccccc1)S(=O)(=O)c1ccc(Br)cc1)C(N)=O` (Brosyl-[X3]KLLKKLL-NH2) showed an MHC of 64 µg/mL.
In the case of `CC(C)C[C@@H](CN(CC(N)=O)S(=O)(=O)c1cccc(Cl)c1)NC(=O)[C@H](CCCCN)NC(=O)[C@H](CCCCN)NC(=O)[C@H](CC(C)C)NC(=O)[C@H](CC(C)C)NC(=O)[C@H](CCCCN)NC(=O)[C@H](CC(C)C)NC(=O)[C@@H](N)Cc1ccccc1` (H-FLKLLKK-X25), the MHC is reported as 256 µg/mL.
For `CC(C)C[C@H](N)CN(CC(=O)N[C@@H](CCCCN)C(=O)N[C@@H](CC(C)C)C(=O)N[C@@H](CC(C)C)C(=O)N[C@@H](CCCCN)C(=O)N[C@@H](CCCCN)C(=O)N[C@@H](CC(C)C)C(=O)N[C@@H](CC(C)C)C(N)=O)S(=O)(=O)c1ccc(Cl)cc1` (X20-[X2]KLLKKLL-NH2), the MHC was 256 µg/mL.
`CC(C)C[C@H](NC(=O)[C@H](CC(C)C)NC(=O)[C@H](CCCCN)NC(=O)[C@H](CC(C)C)NC(=O)[C@@H](N)Cc1ccccc1)C(=O)N[C@@H](CCCCN)C(=O)N[C@@H](CCCCN)C(=O)N[C@@H](Cc1ccccc1)CN(CC(N)=O)S(=O)(=O)c1ccc([N+](=O)[O-])cc1` (H-FLKLLKK-X12) was tested, and the MHC was 256 µg/mL.
Compound `CC(C)C[C@H](NC(=O)[C@H](CC(C)C)NC(=O)[C@H](CCCCN)NC(=O)[C@H](CCCCN)NC(=O)[C@H](CC(C)C)NC(=O)[C@H](CC(C)C)NC(=O)[C@H](CCCCN)NC(=O)CN(C[C@@H](N)Cc1ccccc1)S(=O)(=O)c1ccc(I)cc1)C(N)=O` (X1-[X3]KLLKKLL-NH2) has an MHC of 32 µg/mL.
For `CC(C)C[C@H](N)CN(CC(=O)N[C@@H](CCCCN)C(=O)N[C@@H](CC(C)C)C(=O)N[C@@H](CC(C)C)C(=O)N[C@@H](CCCCN)C(=O)N[C@@H](CCCCN)C(=O)N[C@@H](CC(C)C)C(=O)N[C@@H](CC(C)C)C(N)=O)S(=O)(=O)c1ccc(F)cc1` ({Benzenesulfonyl(4-F)}-[X2]KLLKKLL-NH2), the MHC was 256 µg/mL.
Compound `Cc1ccc(S(=O)(=O)N(CC(N)=O)C[C@H](CC(C)C)NC(=O)[C@H](CCCCN)NC(=O)[C@H](CCCCN)NC(=O)[C@H](CC(C)C)NC(=O)[C@H](CC(C)C)NC(=O)[C@H](CCCCN)NC(=O)[C@H](CC(C)C)NC(=O)[C@@H](N)Cc2ccccc2)cc1` (H-FLKLLKK-X27) has an MHC of 256 µg/mL.
`CC(C)C[C@H](NC(=O)[C@H](CC(C)C)NC(=O)[C@H](CCCCN)NC(=O)[C@H](CC(C)C)NC(=O)[C@@H](N)Cc1ccccc1)C(=O)N[C@@H](CCCCN)C(=O)N[C@@H](CCCCN)C(=O)N[C@@H](Cc1ccccc1)CN(CC(N)=O)S(=O)(=O)c1ccccc1[N+](=O)[O-]` (H-FLKLLKK-X9) gave an MHC of 256 µg/mL.
Compound `CC(C)C[C@H](NC(=O)[C@H](CC(C)C)NC(=O)[C@H](CCCCN)NC(=O)[C@H](CCCCN)NC(=O)[C@H](CC(C)C)NC(=O)[C@H](CC(C)C)NC(=O)[C@H](CCCCN)NC(=O)CN(C[C@@H](N)Cc1ccccc1)S(=O)(=O)c1c(C(C)C)cc(C(C)C)cc1C(C)C)C(N)=O` (X5-[X3]KLLKKLL-NH2) has an MHC of 16 µg/mL.
In the case of `CC(C)C[C@@H](CN(CC(N)=O)S(=O)(=O)c1ccc(I)cc1)NC(=O)[C@H](CCCCN)NC(=O)[C@H](CCCCN)NC(=O)[C@H](CC(C)C)NC(=O)[C@H](CC(C)C)NC(=O)[C@H](CCCCN)NC(=O)[C@H](CC(C)C)NC(=O)[C@@H](N)Cc1ccccc1` (H-FLKLLKK-X8), the MHC is reported as 256 µg/mL.
